Series [1] in a line: Boiling temperature at pressure P. To be noted: Liquid, Ebulliometric method (Recirculating still).
For series [2] the following is noted: Liquid, Ebulliometric method (Recirculating still).

± gives the expanded uncertainty stated by the source.

Take `C1CCCCC1` [cyclohexane]: the “Boiling temperature at pressure P” value in series [1] (20 kPa) was 34.77 ± 0.46 °C; in series [1] (40 kPa), 52.32 ± 0.65 °C; in series [1] (60 kPa), 63.93 ± 0.68 °C; in series [1] (80 kPa), 72.94 ± 0.72 °C; in series [1] (101.3 kPa) it was 80.96 ± 0.81 °C.
Take `CCO` [ethanol]: the “vapor or sublimation pressure” value in series [2] (315.14 K) was 20 ± 1 kPa; in series [2] (329.42 K) it was 40 ± 1 kPa; in series [2] (338.61 K), 60 ± 1 kPa; in series [2] (345.53 K) it was 80 ± 2 kPa; in series [2] (351.62 K), 101.3 ± 1.8 kPa.

For the origin of these results see the NIST ThermoML archive (doi:10.1021/acs.jced.6b00293).
